According to patent US10730863B2, “Bridged bicyclic compounds as farnesoid X receptor modulators” (BRISTOL-MYERS SQUIBB COMPANY, priority 2017, dated 2020):

Molecular target: FXR (Homo sapiens (Human), UniProt Q96RI1)
Test: transient human FXR/Gal4-luciferase reporter assay
Type: cell-based
Details: Gal4-hFXR LBD fusion in HEK293 reporter cells; relative to 8 μM GW-4064
Description: The exemplified compounds of the present invention were tested in the transient human FXR/Gal4-luciferase reporter assay, and assay results were described in the EXAMPLES section hereinbefore.
A Gal4-hFXR fusion construct reporter system was used as the primary assay to characterize compound activity. A construct including 5 copies of the Gal4 promoter response element upstream of a firefly luciferase reporter cDNA was stably expressed in HEK293 cells. This reporter cell line was maintained in Dulbecco's Modified Eagle's medium (DMEM; Gibco) supplemented with 1% penicillin-streptomycin (P/S) solution, 500 μg/ml Zeocin and 10% charcoal/dextran-treated fetal bovine serum (cs-FBS) at 37° C. in a humidified 5% CO2 atmosphere. Another plasmid was constructed in which the human cytomegalovirus promoter in the pcDNA3.1 vector directs the expression of the cDNA encoding a fusion protein comprised of the DNA binding domain from the Gal4 transcription factor fused to the ligand binding domain from human FXR.
The day prior to transfection, the reporter cells in culture are detached from the plate with trypsin and plated into a T75 flask at a sufficient density to achieve approximately 90% confluence the next morning. The transfection reagents are prepared by separately diluting 25 μg of the pcDNA3.1-Gal4-FXR plasmid into 1.87 mL of Opti-MEM (Thermo-Fisher), and 40 μL of Lipofectamine 2000 (Thermo-Fisher) into 1.87 mL of Opti-MEM, and then adding the diluted DNA solution into the diluted Lipofectamine 2000 solution and incubating at room temperature for 15-20 minutes. The mixture is further diluted with 10 mL of a solution comprised of DMEM, 10% cs-FBS, and 1% P/S immediately prior to transferring to the cells. The maintenance culture media is aspirated from the cells and the final transfection mixture is added before the cells are incubated overnight at 37° C. in a humidified 5% CO2 atmosphere. This protocol can be scaled up, and the transiently transfected cells can be cryopreserved in an assay-ready format.
For compound testing, 100 nL of the compounds (serial dilutions in DMSO) are dispensed with an Echo acoustic dispenser (Labcyte) into the wells of a Corning/Costar clear bottom 384-well white plate. The transfected cells are harvested, counted, and diluted such that 10-25,000 cells in 25 μL are plated into each well of the 384-well compound assay plate. The compound-treated cells are incubated overnight at 37° C. in a humidified 5% CO2 atmosphere. The next morning 25 μL of Steady-Glo (Promega) are added to each well of the plate, the mixture is incubated for 15 min. with shaking, and luminescence is measured on an Envision (Perkin Elmer) plate reader. Background counts from cells treated with DMSO alone are subtracted from all raw counts, and the corrected values are converted to a percentage of the control response attained with 8 μM GW-4064.

Sequence of FXR (Q96RI1 262-486): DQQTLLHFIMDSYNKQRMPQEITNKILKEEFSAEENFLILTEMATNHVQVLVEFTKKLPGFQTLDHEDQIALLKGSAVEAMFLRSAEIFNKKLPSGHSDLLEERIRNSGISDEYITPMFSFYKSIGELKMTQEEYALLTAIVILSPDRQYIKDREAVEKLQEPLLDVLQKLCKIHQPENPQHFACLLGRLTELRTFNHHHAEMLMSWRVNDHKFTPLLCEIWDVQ

| SMILES | EC50 |
| --- | --- |
| O=C(O)c1cc2ccc(C#CC34CCC(OCc5c(-c6c(Cl)cncc6Cl)noc5C5CC5)(CC3)CC4)cc2c(OCCN2CCCC2)n1 [Example 574] | 1.37 µM |
| CCOc1nc(C(=O)O)cc2ccc(OCC34CCC(OCc5c(-c6c(Cl)cncc6Cl)noc5C5CC5)(CC3)CC4)cc12 [Example 575] | 0.018 µM |
| Cc1nc(NCC23CCC(OCc4c(-c5c(Cl)cccc5Cl)noc4C4CC4)(CC2)CC3)sc1CC(=O)O [Example 577] | 0.86 µM |
| O=C(O)c1cn2c(n1)CN(CC13CCC(OCc4c(-c5c(Cl)cccc5Cl)noc4C4CC4)(CC1)CC3)CC2 [Example 578] | 0.903 µM |
| O=C(O)c1ccc(NCC23CCC(OCc4c(-c5c(Cl)cccc5Cl)noc4C4CC4)(CC2)CC3)nc1 [Example 579] | 0.07 µM |
| O=C(O)c1cncc(NCC23CCC(OCc4c(-c5c(Cl)cccc5Cl)noc4C4CC4)(CC2)CC3)c1 [Example 580] | 0.543 µM |
| Cn1nc(NCC23CCC(OCc4c(-c5c(Cl)cccc5Cl)noc4C4CC4)(CC2)CC3)cc1C(=O)O [Example 581] | 0.265 µM |
| COc1ncc(-c2noc(C34CCC(OCc5c(-c6c(Cl)cncc6Cl)noc5C5CC5)(CC3)CC4)n2)cc1C(=O)O [Example 585] | 0.114 µM |
| CC(C)Oc1cc(C(=O)O)nc2ccc(CCC34CCC(OCc5c(-c6c(Cl)cncc6Cl)noc5C5CC5)(CC3)CC4)cc12 [Example 586] | 0.03 µM |
| O=C(O)Cc1ccc(/C=C/C23CCC(OCc4c(-c5c(Cl)cncc5Cl)noc4C4CC4)(CC2)CC3)cc1 [Example 587] | 0.173 µM |
| O=C(O)c1ccc2cc(/C=C/C34CCC(OCc5c(-c6c(Cl)cncc6Cl)noc5C5CC5)(CC3)CC4)ccc2n1 [Example 588] | 0.088 µM |
| O=C(O)c1cc(OC2CCCC2)c2cc(/C=C/C34CCC(OCc5c(-c6c(Cl)cncc6Cl)noc5C5CC5)(CC3)CC4)ccc2n1 [Example 589] | 0.017 µM |
| COc1nc(C(=O)O)nc2ccc(/C=C/C34CCC(OCc5c(-c6c(Cl)cncc6Cl)noc5C5CC5)(CC3)CC4)cc12 [Example 590] | 0.944 µM |
| CC(C)Oc1cc(C(=O)O)nc2ccc(/C=C/C34CCC(OCc5c(-c6c(Cl)cncc6Cl)noc5C5CC5)(CC3)CC4)cc12 [Example 591] | 0.016 µM |
| O=C(O)c1cnc2cc(/C=C/C34CCC(OCc5c(-c6c(Cl)cncc6Cl)noc5C5CC5)(CC3)CC4)ccn12 [Example 592] | 0.194 µM |
| O=C(O)c1cnc2ccc(/C=C/C34CCC(OCc5c(-c6c(Cl)cncc6Cl)noc5C5CC5)(CC3)CC4)cn12 [Example 593] | 1.13 µM |
| O=C(O)Cc1ccc(/C=C/C23CCC(OCc4c(-c5c(Cl)cncc5Cl)noc4C4CC4)(CC2)CC3)cc1F [Example 594] | 0.153 µM |
| Cn1c(C(=O)O)cc2ccc(/C=C/C34CCC(OCc5c(-c6c(Cl)cncc6Cl)noc5C5CC5)(CC3)CC4)cc21 [Example 595] | 0.049 µM |
| O=C(O)Cc1ccc(/C=C/C23CCC(OCc4c(-c5c(Cl)cncc5Cl)noc4C4CC4)(CC2)CC3)cn1 [Example 596] | 1.35 µM |
| Cn1c(C(=O)O)cc2c(/C=C/C34CCC(OCc5c(-c6c(Cl)cncc6Cl)noc5C5CC5)(CC3)CC4)cccc21 [Example 597] | 0.208 µM |
| CCOc1cc(C(=O)O)nc2ccc(/C=C/C34CCC(OCc5c(-c6c(Cl)cncc6Cl)noc5C5CC5)(CC3)CC4)cc12 [Example 598] | 0.011 µM |
| O=C(O)c1cc2ccc(/C=C/C34CCC(OCc5c(-c6c(Cl)cncc6Cl)noc5C5CC5)(CC3)CC4)cc2c(Cl)n1 [Example 599] | 0.015 µM |
| O=C(O)Cc1cccc(/C=C/C23CCC(OCc4c(-c5c(Cl)cncc5Cl)noc4C4CC4)(CC2)CC3)c1 [Example 600] | 2.04 µM |

| SMILES | EC50 |
| --- | --- |
| COCCCOc1nc(C(=O)O)cc2ccc(/C=C/C34CCC(OCc5c(-c6c(Cl)cncc6Cl)noc5C5CC5)(CC3)CC4)cc12 [Example 601] | 0.018 µM |
| O=C(O)Cc1ccc(/C=C/C23CCC(OCc4c(-c5c(Cl)cncc5Cl)noc4C4CC4)(CC2)CC3)c(F)c1 [Example 602] | 0.081 µM |
| O=C(O)c1cc2ccc(/C=C/C34CCC(OCc5c(-c6c(Cl)cncc6Cl)noc5C5CC5)(CC3)CC4)cc2c(N2CCOCC2)n1 [Example 603] | 0.018 µM |
| CCOc1nc(C(=O)O)cc2ccc(/C=C/C34CCC(OCc5c(-c6c(Cl)cncc6Cl)noc5C5CC5)(CC3)CC4)cc12 [Example 604] | 0.0441 µM |
| COc1ccc(/C=C/C23CCC(OCc4c(-c5c(Cl)cncc5Cl)noc4C4CC4)(CC2)CC3)cc1CCC(=O)O [Example 605] | 0.432 µM |
| O=C(O)CCc1ccc(/C=C/C23CCC(OCc4c(-c5c(Cl)cncc5Cl)noc4C4CC4)(CC2)CC3)cc1 [Example 606] | 0.16 µM |
| O=C(O)CCc1ccc(/C=C/C23CCC(OCc4c(-c5c(Cl)cncc5Cl)noc4C4CC4)(CC2)CC3)cc1F [Example 607] | 0.269 µM |
| O=C(O)COc1ccc(/C=C/C23CCC(OCc4c(-c5c(Cl)cncc5Cl)noc4C4CC4)(CC2)CC3)c(F)c1 [Example 608] | 1.03 µM |
| COC1CN(c2nc(C(=O)O)cc3ccc(/C=C/C45CCC(OCc6c(-c7c(Cl)cncc7Cl)noc6C6CC6)(CC4)CC5)cc23)C1 [Example 609] | 0.067 µM |
| O=C(O)c1cc2ccc(/C=C/C34CCC(OCc5c(-c6c(Cl)cncc6Cl)noc5C5CC5)(CC3)CC4)cc2c(N2CC(O)C2)n1 [Example 610] | 0.077 µM |
| O=C(O)c1cc2ccc(/C=C/C34CCC(OCc5c(-c6c(Cl)cncc6Cl)noc5C5CC5)(CC3)CC4)cc2c(N2CC(F)C2)n1 [Example 611] | 0.022 µM |
| O=C(O)c1cc2ccc(/C=C/C34CCC(OCc5c(-c6c(Cl)cncc6Cl)noc5C5CC5)(CC3)CC4)cc2c(N2CC(CO)C2)n1 [Example 612] | 0.108 µM |
| O=C(O)c1cc2ccc(/C=C/C34CCC(OCc5c(-c6c(Cl)cncc6Cl)noc5C5CC5)(CC3)CC4)cc2c(OC2CCC2)n1 [Example 613] | 0.298 µM |
| O=C(O)c1cc2ccc(/C=C/C34CCC(OCc5c(-c6c(Cl)cncc6Cl)noc5C5CC5)(CC3)CC4)cc2c(OC2CC2)n1 [Example 614] | 0.051 µM |
| O=C(O)c1cc2ccc(/C=C/C34CCC(OCc5c(-c6c(Cl)cncc6Cl)noc5C5CC5)(CC3)CC4)cc2c(OC2CCCC2)n1 [Example 615] | 0.052 µM |
| O=C(O)COc1ccc(/C=C/C23CCC(OCc4c(-c5c(Cl)cncc5Cl)noc4C4CC4)(CC2)CC3)cn1 [Example 616] | 3.04 µM |
| O=C(O)COc1cc(/C=C/C23CCC(OCc4c(-c5c(Cl)cncc5Cl)noc4C4CC4)(CC2)CC3)ccn1 [Example 617] | 1.47 µM |
| CNC(=O)Cc1ccc(/C=C/C23CCC(OCc4c(-c5c(Cl)cncc5Cl)noc4C4CC4)(CC2)CC3)cc1 [Example 618] | 0.393 µM |
| Clc1cncc(Cl)c1-c1noc(C2CC2)c1COC12CCC(/C=C/c3ccc(Cc4nn[nH]n4)cc3)(CC1)CC2 [Example 619] | 0.213 µM |
| CN(C)C(=O)Cc1ccc(/C=C/C23CCC(OCc4c(-c5c(Cl)cncc5Cl)noc4C4CC4)(CC2)CC3)cc1 [Example 620] | 0.382 µM |
| O=C(O)Cc1ccc(/C=C/C23CCC(OCc4c(-c5c(Cl)cncc5Cl)noc4C4CC4)(CC2)CC3)c(C(F)(F)F)c1 [Example 621] | 0.043 µM |
| O=C(O)COCc1ccc(/C=C/C23CCC(OCc4c(-c5c(Cl)cncc5Cl)noc4C4CC4)(CC2)CC3)cc1 [Example 622] | 0.176 µM |
| O=C(O)CCc1cccc(/C=C/C23CCC(OCc4c(-c5c(Cl)cncc5Cl)noc4C4CC4)(CC2)CC3)c1 [Example 623] | 0.843 µM |
